The first data set can be described thus: method code SF-HPLC, from DOI: 10.1016/0378-5173(94)00315-v. Conditions: pH 1.0.
As to `COc1ccc2cc(CC(=O)O)ccc2c1`, the logD is 2.82.

The same data set, now with this note: pH 7.4.
As for `COc1ccc2cc(CC(=O)OCC(=O)N3CCOCC3)ccc2c1`, the logD worked out at 2.13.

`COc1ccc2cc(CC(=O)OCC(=O)NC(C)C)ccc2c1`: the logD turned out to be 2.89.

As to `C=CCN(CC=C)C(=O)COC(=O)Cc1ccc2cc(OC)ccc2c1`, the logD was found to be 3.67.

`CCCNC(=O)COC(=O)Cc1ccc2cc(OC)ccc2c1` had a logD of 3.1.

As to `COc1ccc2cc(CC(=O)OCC(=O)N3CCCC3)ccc2c1`, the logD stood at 2.71.

In turn, `CCNC(=O)COC(=O)Cc1ccc2cc(OC)ccc2c1` gave a logD of 2.65.

`COc1ccc2cc(CC(=O)OCC(=O)N(C)C)ccc2c1` showed a logD of 2.23.

As for `CNC(=O)COC(=O)Cc1ccc2cc(OC)ccc2c1`, the logD amounted to 2.19.

In the case of `COc1ccc2cc(CC(=O)OCC(=O)N(CCO)CCO)ccc2c1`, the logD was 1.41.

`CCN(CCO)C(=O)COC(=O)Cc1ccc2cc(OC)ccc2c1` showed a logD of 1.98.

Take `COc1ccc2cc(CC(=O)OCC(N)=O)ccc2c1`: the logD came to 1.88.

In turn, `COc1ccc2cc(CC(=O)OCC(=O)NC(C)(C)C)ccc2c1` returned a logD of 3.6.

On to `CCCCNC(=O)COC(=O)Cc1ccc2cc(OC)ccc2c1`, for which the logD amounted to 3.57.

On to `COc1ccc2cc(CC(=O)OCC(=O)N(C)CCO)ccc2c1`, for which the logD amounted to 1.58.

`CCN(CC)C(=O)COC(=O)Cc1ccc2cc(OC)ccc2c1` came in with a logD of 3.05.

Turning to `CCC(C)NC(=O)COC(=O)Cc1ccc2cc(OC)ccc2c1` (centres undefined), the logD stood at 3.31.

Consider `CCCN(CCC)C(=O)COC(=O)Cc1ccc2cc(OC)ccc2c1`, for which the logD came to 4.04.

Regarding `COc1ccc2cc(CC(=O)OCC(=O)NC3CCCCC3)ccc2c1`, the logD was determined as 3.99.

As a reminder, the logD is the decadic logarithm of the distribution of all forms, ionised or not, between an organic phase and buffer at a given pH.
